According to US11186577B2, “Vasopressin receptor antagonists and products and methods related thereto” (BlackThorn Therapeutics, Inc., priority 2017, dated 2021):

Tested on: MDR1 (P-glycoprotein)
Assay: MDR1-MDCK effective efflux assay (Transwell, 10 μM, 1 hour), MDR1-MDCK cells
Assay type: in vitro ADME
Settings: dog, MDCK-MDR1, pH 7.4, MDR1-MDCK cells, apical to basolateral (A>B), 10 μM, 1 hour; read-out: Papp AB MDR1
Outline: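 Wild-type and MDR1-MDCK monolayers cultured 3 days were dosed with compound at 10 μM (0.1% DMSO) in HBSS/25 mM HEPES pH 7.4, in both A>B and B>A directions, for 1 h at 37 °C. Samples were quantified by LC-MS/MS to give Papp and efflux ratio. Effective efflux ratio = ER(MDR1-MDCK)/ER(wild-type); Lucifer Yellow checked monolayer integrity.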

SMILES | Papp A→B at 1 h, 10 μM [×10⁻⁶ cm/s]
FC(F)CN1Cc2cc(Cl)ccc2-n2c(nnc2C2CC3(C2)CN(c2ccccn2)C3)C1 [compound 52] | 10 to 20
Clc1ccc2c(c1)CN(C1CC1)Cc1nnc(C3CC4(C3)CN(c3ccccn3)C4)n1-2 [compound 56] | > 20
FCCN1Cc2cc(Cl)ccc2-n2c(nnc2C2CC3(C2)CN(c2ccccn2)C3)C1 [compound 59] | 7 to 10
COC(=O)N1Cc2cc(Cl)ccc2-n2c(nnc2C2CC3(C2)CN(c2ccc(F)cn2)C3)C1 [compound 61] | 10 to 20
CC(C)C(=O)N1Cc2cc(Cl)ccc2-n2c(nnc2C2CC3(C2)CN(c2ccc(F)cn2)C3)C1 [compound 63] | < 7
CC(=O)N1Cc2cc(Cl)ccc2-n2c(nnc2C2CC3(C2)CN(c2ccc(F)cn2)C3)C1 [compound 64] | < 7
CCOC(=O)N1Cc2cc(Cl)ccc2-n2c(nnc2C2CC3(C2)CN(c2ccc(F)cn2)C3)C1 [compound 69] | > 20
COC(=O)N1Cc2cc(Cl)ccc2-n2c(nnc2C2CC3(C2)CN(c2ccccn2)C3)C1 [compound 70] | 10 to 20
CCC(=O)N1Cc2cc(Cl)ccc2-n2c(nnc2C2CC3(C2)CN(c2ccc(F)cn2)C3)C1 [compound 72] | < 7
CC(CF)OC(=O)N1Cc2cc(Cl)ccc2-n2c(nnc2C2CC3(C2)CN(c2ccc(F)cn2)C3)C1 (stereo not shown) [compound 78] | > 20
O=C(OC(CF)CF)N1Cc2cc(Cl)ccc2-n2c(nnc2C2CC3(C2)CN(c2ccc(F)cn2)C3)C1 [compound 79] | 10 to 20
O=C(OC1CC1)N1Cc2cc(Cl)ccc2-n2c(nnc2C2CC3(C2)CN(c2ccc(F)cn2)C3)C1 [compound 90] | > 20
O=C(C(F)F)N1Cc2cc(Cl)ccc2-n2c(nnc2C2CC3(C2)CN(c2ccccn2)C3)C1 [compound 122] | 7 to 10
COC(=O)N1Cc2cc(Cl)ccc2-n2c(C3CC4(C3)CN(c3cnccn3)C4)nnc2C1C (stereo not shown) [compound 165] | 7 to 10
CCOC(=O)N1Cc2cc(Cl)ccc2-n2c(C3CC4(C3)CN(c3ccc(F)cn3)C4)nnc2C1C (stereo not shown) [compound 169] | > 20
CC1c2nnc(C3CC4(C3)CN(c3ncc(F)cn3)C4)n2-c2ccc(Cl)cc2CN1C(=O)OC1(C)CC1 (stereo not shown) [compound 173] | > 20
CC1c2nnc(C3CC4(C3)CN(c3ccc(F)cn3)C4)n2-c2ccc(Cl)cc2CN1C(=O)C1(F)CC1 (stereo not shown) [compound 174] | > 20
COC(=O)N1Cc2cc(Cl)ccc2-n2c(C3CC4(C3)CN(c3cccc(C)n3)C4)nnc2C1C (stereo not shown) [compound 180] | > 20
COC(=O)N1Cc2cc(Cl)ccc2-n2c(C3CC4(C3)CN(c3ncccc3F)C4)nnc2C1C (stereo not shown) [compound 182] | > 20

Same assay, conditions: dog, MDCK-MDR1, pH 7.4, Papp AB MDR1

SMILES | Papp A→B at 1 h, 10 μM [×10⁻⁶ cm/s]
CN1Cc2cc(Cl)ccc2-n2c(nnc2C2CC3(C2)CN(c2ccc(F)cn2)C3)C1 [compound 1, 8-chloro-1-(2-(5-fluoropyridin-2-yl)-2-azaspiro[3.3]heptan-6-yl)-5-methyl-5,6-dihydro-4H-benzo[f][1,2,4]triazolo[4,3-a][1,4]diazepine] | 7 to 10
CN1Cc2cc(Cl)ccc2-n2c(nnc2C2CC3(C2)CN(c2cccc(F)n2)C3)C1 [compound 8] | > 20
Clc1ccc2c(c1)CN(C1COC1)Cc1nnc(C3CC4(C3)CN(c3ccccn3)C4)n1-2 [compound 57, 8-chloro-5-(oxetan-3-yl)-1-(2-(pyridin-2-yl)-2-azaspiro[3.3]heptan-6-yl)-5,6-dihydro-4H-benzo[f][1,2,4]triazolo[4,3-a][1,4]diazepine] | < 7
CCC(=O)N1Cc2cc(Cl)ccc2-n2c(nnc2C2CC3(C2)CN(c2ccccn2)C3)C1 [compound 67] | < 7
CC(C)C(=O)N1Cc2cc(Cl)ccc2-n2c(nnc2C2CC3(C2)CN(c2ccccn2)C3)C1 [compound 71] | < 7
O=C(N1Cc2cc(Cl)ccc2-n2c(nnc2C2CC3(C2)CN(c2cnccn2)C3)C1)C1(F)CC1 [compound 81] | 7 to 10
O=C(C1CC1)N1CC2(CC(c3nnc4n3-c3ccc(Cl)cc3CN(C(=O)C3(F)CC3)C4)C2)C1 [compound 136] | < 7
COC(=O)N1Cc2cc(Cl)ccc2-n2c(C3CC4(C3)CN(c3ccc(F)cn3)C4)nnc2C1C (stereo not shown) [compound 142, methyl 8-chloro-1-(2-(5-fluoropyridin-2-yl)-2-azaspiro[3.3]heptan-6-yl)-4-methyl-4H-benzo[f][1,2,4]triazolo[4,3-a][1,4]diazepine-5(6H)-carboxylate] | > 20
CC(C)OC(=O)N1Cc2cc(Cl)ccc2-n2c(nnc2C2CC3(C2)CN(C(=O)C2CC2)C3)C1 [compound 153] | < 7
COC(=O)N1Cc2cc(Cl)ccc2-n2c(C3CC4(C3)CN(c3ncccn3)C4)nnc2C1C (stereo not shown) [compound 166] | < 7
CC(C)OC(=O)N1Cc2cc(Cl)ccc2-n2c(C3CC4(C3)CN(c3ncccn3)C4)nnc2C1C (stereo not shown) [compound 167] | > 20
CCOC(=O)N1Cc2cc(Cl)ccc2-n2c(C3CC4(C3)CN(c3ncccn3)C4)nnc2C1C (stereo not shown) [compound 168] | 7 to 10
COC(=O)N1Cc2cc(Cl)ccc2-n2c(C3CC4(C3)CN(c3ncc(F)cn3)C4)nnc2C1C (stereo not shown) [compound 170] | 10 to 20
CC1c2nnc(C3CC4(C3)CN(c3ncccn3)C4)n2-c2ccc(Cl)cc2CN1C(=O)OC1CC1 (stereo not shown) [compound 171] | 10 to 20
CCOC(=O)N1Cc2cc(Cl)ccc2-n2c(C3CC4(C3)CN(c3ncc(F)cn3)C4)nnc2C1C (stereo not shown) [compound 172] | > 20
CC1c2nnc(C3CC4(C3)CN(c3cnccn3)C4)n2-c2ccc(Cl)cc2CN1C(=O)C1(F)CC1 (stereo not shown) [compound 177] | < 7
CC1c2nnc(C3CC4(C3)CN(c3ncc(F)cn3)C4)n2-c2ccc(Cl)cc2CN1C(=O)OC(CF)CF (stereo not shown) [compound 194] | 10 to 20

Tested on: CD-1 mice
Assay: Arginine-Vasopressin (AVP) induced behavior in mouse (i.c.v. AVP, scratching, digging, grooming)
Assay type: in vivo
Settings: 100 mg/kg, po
Method: Administration of Arginine-Vasopressin (AVP) intracerebroventricularly (i.c.v.) elicits characteristic scratching, digging and grooming behavior in mice that can be measured readily and is sensitive to blockade with vasopressin antagonists (Meisenberg, 1988; Bleickart et al., 2009).
Male CD-1 mice (Charles River Germany) weighing 22-25 g upon the study in-life are used for this study. Animals are housed in groups of 4-5 per cage in standard temperature (22±1° C.) and light-controlled environment (lights on from 7 am to […]), with ad libitum access to food and water. Prior to commencing any procedures to the mice, they are allowed to habituate in the vivarium for a minimum of 7 days.
Anesthesia is induced in a plexiglass chamber for 2-3 min with 5% isoflurane, and maintained through a snout mask with 1-2% isoflurane thereafter. A homeothermic blanket system with a rectal probe is used to monitor and maintain the animal's body temperature at 37.0° C.±1.5° C. during the operation. […] The actual coordinates are calculated by the distance from the point in midline between the eyes and no skin incision is made. […]
Mice are observed and video-recorded for 15 minutes following AVP/saline administration and behaviors are measured (in seconds) and a cumulative time is calculated. […]

SMILES | antagonist activity to AVP-induced scratching behaviors
CN1Cc2cc(Cl)ccc2-n2c(nnc2[C@H]2CC[C@H](Oc3ccccn3)CC2)C1 [balovaptan, reference compound] | effective

Biological target: V1a receptors (Rattus norvegicus (Rat), UniProt P30560)
Assay: Arginine-Vasopressin (AVP) induced phospho-Erk measurement in rat choroid plexus (RCP) cells
Assay type: cell-based
Settings: second study, read-out: IC50, AVP induced pERK1/2 to total ERK1/2
Source text: When V1a receptors are coupled to phospholipase C (PLC), they increase intracellular Ca2+ concentrations and protein kinase C (PKC) activity, and transactivate the mitogen-activated protein kinases/extracellular signal-regulated kinase (MAPK/Erk) and PI3 kinase/Akt pathways upon activation (Chen et al., J Neuroendocrinol. 2010). Rat choroid plexus (RCP) cell lines express functional V1a receptors measured by increased calcium concentrations in response to V1a receptor agonists (Battle et al., Biochem Biophys Res Comm 2000).
RCP P9(18) cells were seeded 30K/well, in 100 μl growth medium containing 10% FBS in polystyrene 96-well plates and incubated at 37° C., 5% CO2 and incubated overnight. The following day, the growth medium was replaced with 50 μl pre-warmed HBSS containing 20 mM HEPES and the cells were incubated at 37° C., 5% CO2 for 1.5 hrs. 1 mM AVP (Sigma V9879) was freshly prepared in distilled water in a glass vial, and diluted to 3× concentrations in HBSS containing 20 mM HEPES and 0.1% BSA in glass vials and kept on ice. Cells were treated with 25 μl 3× vehicle, 3× eBioscience Cell Stimulation Cocktail (Thermo Fisher Scientific 00-4970-93) or 3×AVP and incubated at 37° C., 5% CO2 for 5, 10 or 20 min. Final concentrations of AVP: 10, 100 or 1000 nM. Final concentrations of components in Cell Stimulation Cocktail: 81 nM PMA, 1.34 μM ionomycin, 0.2% ethanol. Cells were lysed with 25 μl 4×CST lysis buffer containing protease and phosphatase inhibitors, PMSF and SDS and then stored at −80° C., for 48 h. The lysates were thawed, centrifuged at 2000 g for 30 min at 4° C. and 40 μl supernatants assayed for pERK1/2 (Thr202/Tyr204; Thr185/Tyr187) and total ERK1/2 using MSD kit K15107D. The MSD ECL data for the lysates were corrected for no cell blanks, then phospho-protein levels expressed as a ratio to the total ERK1/2 level. The ratios were expressed as fold-change from the vehicle-treated control at each timepoint.

V1a receptors, sequence (P30560 whole entry): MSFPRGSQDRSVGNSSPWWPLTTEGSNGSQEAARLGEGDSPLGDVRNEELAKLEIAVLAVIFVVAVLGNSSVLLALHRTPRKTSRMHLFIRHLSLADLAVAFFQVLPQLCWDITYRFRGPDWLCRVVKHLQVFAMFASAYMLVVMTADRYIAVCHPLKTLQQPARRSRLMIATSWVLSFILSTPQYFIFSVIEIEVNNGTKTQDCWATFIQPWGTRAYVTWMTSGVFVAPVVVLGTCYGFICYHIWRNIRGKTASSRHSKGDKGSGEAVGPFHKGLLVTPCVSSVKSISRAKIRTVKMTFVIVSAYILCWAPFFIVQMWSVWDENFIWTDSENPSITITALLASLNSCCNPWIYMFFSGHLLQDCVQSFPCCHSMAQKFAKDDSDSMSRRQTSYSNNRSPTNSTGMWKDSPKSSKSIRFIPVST

SMILES | IC50 [nM]
COC(=O)N1Cc2cc(Cl)ccc2-n2c(C3CC4(C3)CN(c3ccc(F)cn3)C4)nnc2C1C (single isomer, unassigned) [142A] | 20
CN1Cc2cc(Cl)ccc2-n2c(nnc2[C@H]2CC[C@H](Oc3ccccn3)CC2)C1 [balovaptan, reference compound] | 56.7

Same assay, conditions: study 1, read-out: IC50, AVP induced pERK1/2 to total ERK1/2

SMILES | IC50 [nM]
COC(=O)N1Cc2cc(Cl)ccc2-n2c(C3CC4(C3)CN(c3ccc(F)cn3)C4)nnc2C1C (single isomer, unassigned) [142A] | 16
CN1Cc2cc(Cl)ccc2-n2c(nnc2[C@H]2CC[C@H](Oc3ccccn3)CC2)C1 [balovaptan, reference compound] | 85.6

Tested on: not listed separately
Assay: in vitro
Settings: dog, MDCK

SMILES | Papp A→B at 2 h [×10⁻⁶ cm/s]
CN1Cc2cc(Cl)ccc2-n2c(nnc2[C@H]2CC[C@H](Oc3ccccn3)CC2)C1 [balovaptan, reference compound] | 10 to 20

Tested on: MDR1 (P-gp)
Assay: in vitro
Settings: dog, MDCK-MDR1

SMILES | Papp A→B at 2 h [×10⁻⁶ cm/s]
CN1Cc2cc(Cl)ccc2-n2c(nnc2[C@H]2CC[C@H](Oc3ccccn3)CC2)C1 [balovaptan, reference compound] | > 20
